Reference: patent US20190167611A1, “METHODS OF TREATING OR PREVENTING AMYLOID RELATED IMAGING ABNORMALITIES ASSOCIATED WITH ALZHEIMER'S DISEASE TREATMENT” (BIOGEN CHESAPEAKE LLC, priority 2016, published 2019)

Assays:
[1] = human, in vivo
Protocol: The two groups are referred to as the 0.4 mg/day group and the 3.0 mg/day group, respectively.

[2] = tested on: Alzheimer's disease patients who present with clinically significant ARIA; assay: Clinical trial of glyburide plus standard of care versus placebo in Alzheimer's disease patients with clinically significant ARIA; assay type: in vivo, human; settings: glyburide 0.5-3.0 mg/day, several routes
Protocol: In one arm, glyburide is administered as a bolus followed by continuous infusion. In a second arm, glyburide is administered via a transdermal patch or gel. In a third arm, glyburide is administered via injection. In a fourth arm, glyburide is administered orally. […] Total treatment duration will be a minimum of 72 hours and will continue as needed until acute brain edema has stabilized. […] Plasma levels of glyburide are determined daily or weekly. Each patient is monitored via blood sampling and MRI. Magnetic resonance imaging scans monitor patients for amyloid-related imaging abnormalities and progression of edema and/or associated hemorrhage. FLAIR sequences are evaluated for the presence of ARIA. A 4-point scale is used to assess presence of ARIA. The percentages of patients with ARIA are compared between treatment groups and placebo group.

In the case of `COc1ccc(Cl)cc1C(=O)NCCc1ccc(S(=O)(=O)NC(=O)NC2CCC(O)CC2)cc1` (stereo not shown) [M1], the “Metabolite exposure in relation to the administered dose of RP-1127” value [1] is reported as “approximately proportional”.

For `COc1ccc(Cl)cc1C(=O)NCCc1ccc(S(=O)(=O)NC(=O)N[C@@H]2CCC[C@H](O)C2)cc1` [M2], the “Metabolite exposure in relation to the administered dose of RP-1127” value [1] was “approximately proportional”.

With `COc1ccc(Cl)cc1C(=O)NCCc1ccc(S(=O)(=O)NC(=O)NC2CCCCC2)cc1` [glyburide] the “Dose dependence of pharmacokinetics” value [1] was “dose-independent pharmacokinetics”, the “ARIA compared with the control group” value [2] was “significantly reduced or inhibited” and the “Brain edema compared with the control group” value [2] was “reduced brain edema”. The “Functional recovery compared with the control group” value [2] was “improved functional recovery” and the “Hemorrhage volume compared with the control group” value [2] was “reduced hemorrhage volume”.
